We go through 1 molecule from patent US5968487A (L'Oreal, priority 1996, dated 1999).

The target of this experiment is T1, human melanocyte tyrosinase (Homo sapiens, UniProt P14679).
T1 construct: endogenous in cells; host or cells: cultured human melanocytes (Triton X-100 / ultrasound extract after 3 days' culture with the compound)
T1 sequence (P14679 19-529): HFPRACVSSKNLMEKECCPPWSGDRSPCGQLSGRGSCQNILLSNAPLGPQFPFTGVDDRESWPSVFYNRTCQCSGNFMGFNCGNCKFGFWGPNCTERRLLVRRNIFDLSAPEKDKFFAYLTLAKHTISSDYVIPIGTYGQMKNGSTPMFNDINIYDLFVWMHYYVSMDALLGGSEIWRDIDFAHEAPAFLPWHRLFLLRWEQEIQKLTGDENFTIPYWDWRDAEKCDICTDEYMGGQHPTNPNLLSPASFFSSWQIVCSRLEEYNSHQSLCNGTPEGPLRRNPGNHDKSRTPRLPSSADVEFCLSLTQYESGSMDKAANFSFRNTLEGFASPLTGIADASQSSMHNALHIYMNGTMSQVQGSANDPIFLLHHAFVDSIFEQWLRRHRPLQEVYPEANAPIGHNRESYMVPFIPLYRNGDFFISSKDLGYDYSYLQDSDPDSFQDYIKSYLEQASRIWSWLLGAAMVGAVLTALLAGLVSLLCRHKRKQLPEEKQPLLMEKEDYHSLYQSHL
Description: dopa-oxidase activity of human melanocyte tyrosinase after 3-day culture of melanocytes with the compound. It is filed as cell-based. The note with it: human melanocytes cultured three days with compound; lysate + 5 mM L-dopa, absorbance at 475 nm (dopachrome), 25° C., 60 minutes; read-out: IC50, concentration of active product required to obtain a 50% inhibition of the production of melanin.
Description: After three days, the melanocytes were "trypsinized" in a mixture of trypsin/0.05% EDTA/0.02% in a phosphate buffer (50 mM at pH 6.8), washed three times in phosphate buffer containing 1% (w/v) Triton X-100 and subjected to ultrasound. After centrifugation, samples were taken and mixed with 5 mM L-dopa in phosphate buffer. The tyrosinase activity was evaluated by spectrophotometry by measuring the increase in the absorbance at 475 nm due to the formation of dopachrome from 5 mM dopa. The absorbance was read on a microplate reader at 25° C. for 60 minutes.
The activity of the cellular tyrosinase is measured relative to a standard range prepared with commercial tyrosinase.
The value of IC50, i.e., the concentration of active product required to obtain a 50% inhibition of the production of melanin, is determined.

Regarding `O=C1NC(C(=O)OCc2cc(=O)c(O)co2)CS1` (stereo not shown) [5-hydroxy-4-oxo-4H-pyran-2-ylmethyl 2-oxothiazolidine-4-carboxylate], the IC50 was 200 to 300 µM.
